The values that follow come from US20220016113A1, “?2-ADRENOCEPTOR SUBTYPE C (ALPHA-2C) ANTAGONISTS FOR THE TREATMENT OF SLEEP APNEA” (Bayer Aktiengesellschaft, priority 2018, published 2022).

This experiment has as its system pig model of obstructive sleep apnea (OSA). Nature of the experiment: pig model of obstructive sleep apnea (OSA): upper airway collapsibility under negative pressure. Type of experiment: in vivo, German Landrace pigs. The following applies: anaesthetized pigs. The source says: The therapeutic potential of the compounds of formula (I) according to the present invention in sleep apnea has been assessed preclinically in a pig model of obstructive sleep apnea (OSA).
Using negative pressure, it is possible to induce collapse and thus obstruction of the upper respiratory tract in anaesthetized, spontaneously breathing pigs (Wirth K. J. et al., Sleep 36(5) (2013) pp. 699-708).
German Landrace pigs are used for the model. The pigs are anaesthetized and tracheotomized. Two tracheal cannulas are inserted into the trachea, one into the rostral part and the other into the caudal part of the trachea. Using a connection piece, the rostral cannula is connected to a tube to the negative pressure device and to the distal tracheal cannula. The distal tracheal cannula is additionally connected to a tube with an open end to atmosphere via a connection piece that served for free tracheal breathing, circumventing the upper airway. By appropriate opening and clamping of those tubes breathing can be switched from nasal breathing to breathing through the caudal tracheal cannula, circumventing the upper airway, and the (isolated) upper airway can be connected to the negative pressure device, causing airflow in the inspiratory direction.
At certain points in time, the collapsibility of the upper respiratory tract is tested by having the pig breathe via the caudal cannula and applying negative pressures of −50, −100 and −150 cm water head (cm H2O) to the upper respiratory tract. This causes the upper respiratory tract to collapse, which manifests itself in an interruption of the airflow and a pressure drop in the tube system. This test is conducted prior to the administration of the test substance and at certain intervals after the administration of the test substance. An appropriately effective test substance can prevent this collapse of the respiratory tract in the inspiratory phase.

Consider `O=C(c1cnc(N2CC3(COC3)C2)nc1)N1CCC(N2CCc3ccccc3C2)CC1` [[4-(3,4-Dihydroisoquinolin-2(1H)-yl)piperidin-1-yl][2-(2-oxa-6-azaspiro[3.3]hept-6-yl)pyrimidin-5-yl]methanone], for which the “inhibited upper airway collapsibility, duration” value was “up to two hours” (i.v. bolus 0.007 mg/kg followed by i.v. infusion 0.0025 mg/kg/h for four hours, negative pressure −50 cm water head); “up to 90 minutes” (i.v. bolus 0.007 mg/kg followed by i.v. infusion 0.0025 mg/kg/h for four hours, negative pressure −100 cm water head); “up to four hours” (i.v. bolus 0.07 mg/kg followed by i.v. infusion 0.025 mg/kg/h for four hours, negative pressure −50 cm water head); “up to four hours” (i.v. bolus 0.07 mg/kg followed by i.v. infusion 0.025 mg/kg/h for four hours, negative pressure −100 cm water head); “up to two hours” (i.v. bolus 0.07 mg/kg followed by i.v. infusion 0.025 mg/kg/h for four hours, negative pressure −150 cm water head).
